Our source for the EC50 and CC50 values is patent US12227520B2 (priority 2019, dated 2025).

In one data set the test system is HIV-1 (IIIB). Put plainly: Antiviral assay in MT-4 cells (HIV MT-4 antiviral assay). It counts as cell-based. Conditions: Human immunodeficiency virus 1, IIIB, MT4, 120 h, HIV-1 (IIIB) in MT-4 cells, 5 days incubation; read-out: EC50. Summed up:
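Read-out is CellTiter-Glo chemiluminescence after 5-day culture at 37° C, giving protection of MT-4 cells from HIV-1 IIIB cytopathicity. Compounds tested in 1:3 dilution series in complete RPMI; controls were no drug, mock infection and 5 μM AZT.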

The nature of data set [1]: Cytotoxicity assay in MT-4 cells. The conditions noted are these: human, uninfected MT-4 cells, 5 days incubation; read-out: CC50. It counts as cell-based, human. Summed up: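 For cytotoxicity, uninfected MT-4 cells were incubated with compounds 5 days at 37 °C, with 10 μM puromycin marking base cytotoxicity. Parallel plates used HIV-1 IIIB-infected (1:250 stock dilution) or mock cells with 5 μM AZT and no-drug controls. Read-out: CellTiter-Glo chemiluminescence.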

The next data set relates to pLai RLuc reporter virus. As to the kind of experiment: microbe, parasite or virus in culture. Conditions: Human immunodeficiency virus 1, 72 h. It counts as cell-based, HIV. Summed up:
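Read-out is Renilla luciferase after 72 h at 37 °C in MT-4 cells infected 2 h beforehand with pLai RLuc reporter virus; compounds diluted 1:3.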

The mark [2] stands for this setting: read-out: Antiviral Serum Shift RLuc 50% HS, HS/CCM (RPMI media, 10% FBS, 50% HS, 1% P/S), 72-h incubation.
The mark [3] stands for this setting: read-out: Antiviral Serum Shift RLuc CCM, CCM (RPMI media, 10% FBS, 1% P/S), 72-h incubation.

Where two headings read alike, the source gives them in different places.

As to `O=C(NCc1ccc(F)cc1F)c1cn2c(c(O)c1=O)C(=O)N1CC/C=C\C[C@H]2C1` [Example 44-2, (8S,Z)—N-(2,4-difluorobenzyl)-13-hydroxy-1,12-dioxo-1,3,4,7,8,12-hexahydro-2,8-methanopyrido[1,2-a][1,4]diazecine-11-carboxamide], the EC50 amounted to 2.36 nM with HIV-1 (IIIB), 36.8 nM with pLai RLuc reporter virus (setting [2]) and 0.264 nM with pLai RLuc reporter virus (setting [3]). Further, the CC50 (commonly the concentration giving 50% cytotoxicity) at 5 days in data set [1] worked out at 15100 nM.

Turning to `O=C(NCc1c(F)cc(F)cc1F)c1cn2c(c(O)c1=O)C(=O)N1C[C@@H]2CCc2c(Cl)cccc21` [Example 45-1, (12S)-1-chloro-7-hydroxy-6,8-dioxo-N-(2,4,6-trifluorobenzyl)-6,8,13,14-tetrahydro-12H-5,12-methanobenzo[e]pyrido[1,2-a][1,4]diazonine-9-carboxamide], the EC50 came out at 1.66 nM with HIV-1 (IIIB), 2.56 nM in the data set with pLai RLuc reporter virus (setting [2]) and 0.359 nM in the data set with pLai RLuc reporter virus (setting [3]). Besides, the half-maximal cytotoxic concentration (CC50) at 5 days in data set [1] turned out to be 6900 nM.

Turning to `O=C(NCc1c(F)cc(F)cc1F)c1cn2c(c(O)c1=O)C(=O)N1C[C@H]2CCc2cccc(F)c21` [Example 46-2, (12R)-4-fluoro-7-hydroxy-6,8-dioxo-N-(2,4,6-trifluorobenzyl)-6,8,13,14-tetrahydro-12H-5,12-methanobenzo[e]pyrido[1,2-a][1,4]diazonine-9-carboxamide], the values for the EC50 with HIV-1 (IIIB), in the data set on pLai RLuc reporter virus (setting [2]) and in the data set on pLai RLuc reporter virus (setting [3]) were 1.41 nM, 2.91 nM and 0.204 nM, respectively. Besides, in data set [1], the half-maximal cytotoxic concentration (CC50) at 5 days worked out at 12500 nM.

Regarding `O=C(NCc1ccc(F)cc1F)c1cn2c(c(O)c1=O)C(=O)N1CC=CC[C@@H]2C1` [Example 47-1, (7R)—N-(2,4-difluorobenzyl)-12-hydroxy-1,11-dioxo-1,6,7,11-tetrahydro-3H-2,7-methanopyrido[1,2-a][1,4]diazonine-10-carboxamide], the figures for the EC50 in the data set on HIV-1 (IIIB), in the data set with pLai RLuc reporter virus (setting [2]) and in the data set with pLai RLuc reporter virus (setting [3]) were 4.93 nM, 25.7 nM and 0.682 nM, respectively. The half-maximal cytotoxic concentration (CC50) at 5 days in data set [1] was 11100 nM.

Regarding `O=C(NCc1ccc(F)cc1F)c1cn2c(c(O)c1=O)C(=O)N1CC=CC[C@H]2C1` [Example 47-2, (7S)—N-(2,4-difluorobenzyl)-12-hydroxy-1,11-dioxo-1,6,7,11-tetrahydro-3H-2,7-methanopyrido[1,2-a][1,4]diazonine-10-carboxamide], the EC50 was 1.16 nM with HIV-1 (IIIB), 1.01 nM with pLai RLuc reporter virus (setting [2]) and 0.247 nM in the data set on pLai RLuc reporter virus (setting [3]). The CC50 at 5 days in data set [1] came out at 8720 nM.

For the compound `O=C(NCc1c(F)cc(F)cc1F)c1cn2c(c(O)c1=O)C(=O)N1C[C@H]2CCc2cc(Cl)ccc21` [Example 48-2, (12R)-2-chloro-7-hydroxy-6,8-dioxo-N-(2,4,6-trifluorobenzyl)-6,8,13,14-tetrahydro-12H-5,12-methanobenzo[e]pyrido[1,2-a][1,4]diazonine-9-carboxamide], the EC50 in the data set with HIV-1 (IIIB) turned out to be 2.38 nM; with pLai RLuc reporter virus (setting [2]) it was 1.52 nM; in the data set on pLai RLuc reporter virus (setting [3]), 0.358 nM. Further, the cytotoxic concentration (CC50) at 5 days in data set [1] is 17600 nM.

Consider `O=C(NCc1ccc(F)cc1F)c1cn2c(c(O)c1=O)C(=O)N1C[C@H]2CCc2cc(Cl)ccc21` [Example 49-2, (12R)-2-chloro-N-(2,4-difluorobenzyl)-7-hydroxy-6,8-dioxo-6,8,13,14-tetrahydro-12H-5,12-methanobenzo[e]pyrido[1,2-a][1,4]diazonine-9-carboxamide], for which the EC50 in the data set on HIV-1 (IIIB) came out at 2.38 nM; in the data set with pLai RLuc reporter virus (setting [2]), 1.11 nM; with pLai RLuc reporter virus (setting [3]), 0.202 nM. In data set [1], the cytotoxic concentration (CC50) at 5 days turned out to be 7200 nM.

Consider `O=C(NCc1ccc(F)c(Cl)c1F)c1cn2c(c(O)c1=O)C(=O)N1CCCC[C@H]2C1` [Example 51, (7S)—N-(3-chloro-2,4-difluorobenzyl)-12-hydroxy-1,11-dioxo-1,4,5,6,7,11-hexahydro-3H-2,7-methanopyrido[1,2-a][1,4]diazonine-10-carboxamide], for which the EC50 with HIV-1 (IIIB) turned out to be 1.17 nM; with pLai RLuc reporter virus (setting [2]), 2.14 nM; in the data set on pLai RLuc reporter virus (setting [3]) it was 0.215 nM. Moreover, the cytotoxic concentration (CC50) at 5 days in data set [1] came to 4390 nM.
